Reference: PubChem BioAssay (NCI)
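Method: 48-hour compound exposure of cells in 96-well plates, five concentrations, linear interpolation of endpoints. Abbreviation: GI50, concentration required for 50% inhibition of growth. TGI is the concentration that stops growth completely.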

Columns and labels:
Assay in all cases: NCI-60 cell line screen, 48 h
[1] = system: NCI-H23 lung
[2] = system: NCI-H522 lung
[3] = system: 786-0 renal
[4] = system: K-562 leukemia
[5] = system: SF-539 CNS
[6] = system: IGROV1 ovarian
[7] = system: OVCAR-5 ovarian
[8] = system: A498 renal
[9] = system: SNB-75 CNS
[10] = system: UACC-62 melanoma

Structure (SMILES) | TGI [1] [µM] | TGI [2] [µM] | TGI [3] [µM] | TGI [4] [µM] | TGI [5] [µM] | TGI [6] [µM] | TGI [7] [µM] | TGI [8] [µM] | TGI [9] [µM] | TGI [10] [µM] | GI50 [1] [µM] | GI50 [2] [µM] | GI50 [3] [µM] | GI50 [4] [µM] | GI50 [5] [µM] | GI50 [6] [µM] | GI50 [7] [µM] | GI50 [8] [µM] | GI50 [9] [µM] | GI50 [10] [µM]
Cc1ccccc1C1=[N+]([O-])c2ccccc2C1=O | 35.4 | 29 | 31.3 | 45.7 | 33.7 | 34.9 | 43.1 | > 100 | 47 | 34.6 | – | – | – | – | – | – | – | – | – | –
Nc1nc2sc3ccccc3c(=O)n2n1 | > 100 | – | > 100 | > 100 | > 100 | > 100 | > 100 | – | > 100 | > 100 | – | – | – | – | – | – | – | – | – | –
O=C(Nc1ccc(F)cc1)Nc1ccccc1CNc1nc(Nc2ccc(OCCN3CCCC3)cc2)ncc1Cl | 13.1 | 13.4 | 1.77 | 3.06 | 1.57 | 13.3 | 6.88 | 8.21 | 1.35 | 2.04 | 5.63 | 2.26 | 0.92 | 1.2 | 0.831 | 5.27 | 1.76 | 1.42 | 0.677 | 0.968
CC/C(=C(/c1ccc(OCCN(C)C)cc1)c1ccc(OC(=O)CCC(=O)c2c(C)[nH]c(/C=C3\N=C(c4ccc[nH]4)C=C3OC)c2C)cc1)c1ccccc1 | 18.7 | 5.38 | 5.73 | 6.37 | 9.26 | 15.4 | 21.6 | 16.8 | 9.86 | 3.78 | 4.02 | 1.88 | 2.19 | 2.32 | 2.59 | 3.65 | 5.75 | 2.54 | 2.45 | 1.81
CC(C)Nc1ccc(Nc2ccccc2)cc1 | 65.3 | 28.8 | > 100 | 52.5 | 38.6 | 37.3 | 57.1 | > 100 | > 100 | 51.6 | 14.2 | 13.7 | 17.8 | 15.6 | 5.34 | 14.2 | 24.6 | 9.69 | 21.5 | 11.6
Nc1cc(C(=O)O)[nH]c(=O)n1 | > 100 | > 100 | > 100 | > 100 | – | > 100 | > 100 | > 100 | – | > 100 | – | – | – | – | – | – | – | – | – | –
Cn1cc(C2=C(c3cccc(N)c3)C(=O)NC2=O)c2ccccc21 | > 25 | > 25 | > 25 | > 25 | > 25 | > 25 | > 25 | > 6.7 | > 25 | > 25 | 20.9 | 15.5 | 14 | 8.86 | 4.07 | > 22.4 | > 25 | 1.13 | 0.0779 | 12.6
CCCc1cc(O)c2c3c(c(=O)oc2c1)CN(C)CC3 | > 100 | > 100 | > 100 | > 100 | > 100 | > 100 | > 100 | 98.5 | > 100 | > 100 | 98.9 | 45.1 | 61.7 | 31.8 | 43.2 | > 100 | > 100 | 15.8 | 22.1 | 47.2
Cc1ccc(NC(=O)Cc2ccc(/C=C/C(=O)c3ncc[nH]3)cc2)cc1 | > 25 | 20.5 | > 25 | – | 14 | > 25 | > 25 | > 25 | > 25 | > 25 | 5.85 | 4.54 | 4.28 | – | 4.77 | 6.47 | 6.84 | 19.9 | 7 | 8.29
N#C/C(=N\Nc1ccc(Cl)cc1)C(=O)Nc1cc(-c2ccccc2)nn1-c1ccccc1 | > 100 | > 100 | > 100 | > 100 | > 100 | > 100 | > 100 | – | – | > 100 | 2.65 | 2.38 | 4.05 | 1.72 | 3.29 | 4.12 | 3 | – | – | 2.03
CC[O-].CC[O-].O=C([CH-]C(=O)c1cccnc1)c1ccccc1.O=C([CH-]C(=O)c1cccnc1)c1ccccc1.[Ti+4] | – | > 100 | > 100 | > 100 | > 100 | > 100 | > 100 | > 100 | 69 | > 100 | – | 26.1 | 61.1 | 36.2 | 43.1 | > 100 | > 100 | > 100 | 19.9 | > 100
CC(C)[C@H]1CC[C@H]2[C@@H](CC[C@H]3[C@](C)(CN)CCC[C@]23C)C1 | 3.39 | 3.82 | 3.24 | 5.31 | 2.95 | – | 3.44 | 27 | 21.3 | 14.3 | 1.79 | 1.91 | 1.82 | 2.25 | 1.59 | – | 1.73 | 13.2 | 6.95 | 3.38
O=C(C=Nc1ccccc1C(=O)[O-])c1cccs1.O=C(C=Nc1ccccc1C(=O)[O-])c1cccs1.[Co+2] | > 100 | > 100 | > 100 | > 100 | > 100 | > 100 | > 100 | > 100 | – | > 100 | – | – | – | – | – | – | – | – | – | –
COc1ccc2c(c1O)C13CCN(C)C(C2)C1CCC1(C3)OCCO1 (centres undefined) | > 100 | > 100 | > 100 | – | – | > 100 | > 100 | – | > 100 | > 100 | – | – | – | – | – | – | – | – | – | –
C=C(C)C1Cc2c(cc(OC)c3c(=O)c4cccc(O)c4oc23)O1 (centres undefined) | 59.5 | 33.8 | 32.9 | > 100 | 32.3 | 33.1 | > 100 | – | 29.9 | 31.9 | – | – | – | – | – | – | – | – | – | –
[Cl][Sn]([Cl])([c]1ccccc1)[c]1ccccc1 | 24 | – | 16.7 | 12.3 | 29.4 | 38.3 | 29.3 | – | 22.9 | 9.08 | 10.4 | – | 4.8 | 2.69 | 16 | 19.3 | 15.8 | – | 10.8 | 2.87

Structure (SMILES) | TGI [1] [µM] | TGI [2] [µM] | TGI [3] [µM] | TGI [4] [µM] | TGI [5] [µM] | TGI [6] [µM] | TGI [7] [µM] | TGI [8] [µM] | TGI [9] [µM] | TGI [10] [µM] | GI50 [1] [µM] | GI50 [2] [µM] | GI50 [3] [µM] | GI50 [4] [µM] | GI50 [5] [µM] | GI50 [6] [µM] | GI50 [7] [µM] | GI50 [8] [µM] | GI50 [9] [µM] | GI50 [10] [µM]
CCN(CC)CCCn1cnc2ncccc2c1=O | > 100 | > 100 | > 100 | > 100 | > 100 | > 100 | > 100 | – | > 100 | > 100 | – | – | – | – | – | – | – | – | – | –
Cc1noc2cccc(OCc3ccccc3)c12 | > 100 | > 100 | > 100 | > 100 | > 100 | > 100 | > 100 | – | 87.6 | > 100 | – | – | – | – | – | – | – | – | – | –
CCOC(=O)N1C2C=C(C)C(ON2C(=O)c2ccccc2)C2C(C)C(=O)N21 (centres undefined) | > 100 | – | > 100 | > 100 | > 100 | > 100 | > 100 | > 100 | > 100 | > 100 | – | – | – | – | – | – | – | – | – | –
O=c1cc(-c2ccccc2)oc2cc(O)c(O)c(O)c12 | 39.7 | > 100 | 27.3 | > 100 | 36.8 | – | 88.5 | > 100 | > 100 | 31.9 | 12.7 | 13.3 | 9.87 | 12.6 | 8.4 | – | 30 | 6.94 | > 100 | 9.39
Nc1ncnc2c1ncn2Cc1ccc(C23CC4CC(CC(C4)C2)C3)c(OCc2cc(F)c(F)cc2F)c1 | – | > 100 | > 100 | – | > 100 | > 100 | > 100 | > 100 | > 100 | > 100 | – | 7.86 | 17.5 | – | 50.2 | 7.54 | 68.6 | > 100 | > 100 | 4.75
C/C(=N\NC(N)=S)c1cc(C)c(C)cc1C | > 100 | – | > 100 | > 100 | > 100 | > 100 | 46.5 | > 100 | 85.3 | > 100 | – | – | – | – | – | – | – | – | – | –
N/C(=C\C(=O)n1nc(-c2ccccc2)cc1N)c1ccccc1 | 22.8 | 27.9 | 44.3 | 24.4 | – | 61.7 | 61.6 | 12.5 | 52.1 | 19.2 | 4.59 | 5.24 | 7.72 | 2.06 | – | 6.38 | 19.2 | 2.77 | 3.72 | 3.09
Cn1ccnc1C(=O)/C=C/c1ccc(C(=O)Nc2ccc(S(F)(F)(F)(F)F)cc2)cc1 | > 14.3 | > 14.3 | > 14.3 | > 14.3 | 6.45 | > 14.3 | > 14.3 | – | > 14.3 | > 14.3 | 0.853 | 4.69 | 3.86 | 0.385 | 2.4 | 3.08 | 3.3 | – | 0.761 | 2.28
O=C(CCC(=O)Nc1cccc(Cl)c1)CC(=O)c1ccc(F)cc1 | > 100 | > 100 | > 100 | > 100 | > 100 | – | > 100 | – | > 100 | > 100 | – | – | – | – | – | – | – | – | – | –
O=c1c2ccccc2c(Br)c(Br)c2ccccc12 | 38.7 | 3.47 | 29.8 | – | 37.2 | 5.37 | > 100 | 23 | 56 | 59.5 | 12.7 | 1.76 | 14.7 | – | 13.3 | 2.37 | 30.2 | 5.37 | 19.2 | 18.3
COc1cc(-c2nc3sccn3c2-c2ccnc(NCCNS(=O)(=O)c3ccc(Cl)cc3)n2)ccc1F | > 100 | > 100 | > 100 | > 100 | > 100 | > 100 | > 100 | – | > 100 | 5.2 | 3.86 | 2.59 | 7.77 | 2.76 | 6.98 | 3 | 55 | – | 4.48 | 1.39
COc1cc2c3c(n(CCCN(CCN)CCCn4c5c(c6cc(OC)c(OC)cc6c4=O)C(=O)c4cc6c(cc4-5)OCO6)c(=O)c2cc1OC)-c1cc2c(cc1C3=O)OCO2 | 5.24 | 3.88 | 1.51 | > 32.5 | 0.731 | – | 18.9 | 25.7 | > 100 | 0.858 | 0.984 | 0.343 | 0.314 | 2.73 | 0.238 | – | 3.78 | 6.71 | 2.54 | 0.24
CC(=O)N1c2ccccc2C2=CC3C4C(=O)N(c5ccccc5)C(=O)C4C21C1C(=O)N(c2ccccc2)C(=O)C31 (centres undefined) | > 100 | – | > 100 | > 100 | 6.66 | > 100 | > 100 | > 100 | > 100 | > 100 | – | – | – | – | – | – | – | – | – | –
CC(=O)Oc1cc(C)c2c(c1OC(C)=O)CC1(O2)[C@@H](C)CCC2[C@@]3(C)CC[C@H](OC(C)=O)C(C)(C)C3CC[C@]21C (some centres undefined) | 11.5 | – | 7.46 | – | 7.23 | 4.49 | 17.4 | 21.4 | 14.9 | 5.26 | – | – | – | – | – | – | – | – | – | –
O=S(=O)(N/N=C/c1ccc(Cl)c(Cl)c1)c1ccccc1 | > 100 | – | > 100 | > 100 | > 100 | > 100 | > 100 | 92.5 | > 100 | > 100 | – | – | – | – | – | – | – | – | – | –
CC(=O)CCc1ccc(OC2OC(COC(=O)c3cc(O)c(O)c(O)c3)C(O)C(O)C2OC(=O)/C=C/c2ccccc2)cc1 (centres undefined) | 38.6 | 48 | 48.2 | 65.5 | 44.8 | 38.6 | 32.1 | 48 | – | 32.6 | 17.5 | 18.1 | 18.6 | 22.6 | 26.4 | 19 | 15.6 | 23.2 | – | 18.4
